The structures appear in SMILES notation.

The target of this assay is Neuraminidase (Influenza A virus (strain A/USSR/90/1977 H1N1), UniProt P03469, H274Y). Nature of the assay: Inhibition of Influenza A virus (A/California/04/2009 (H1N1)) Neuraminidase H274Y mutant using MUNANA as substrate preincubated for 5 to 15 mins followed by substrate addition and measured after 30 mins by fluorescence spectrophotometric method.
Regarding `CCCCNNC(=O)N[C@H]1CC(C(=O)O)=C[C@@H](OC(CC)CC)[C@@H]1NC(C)=O`, the 50% inhibitory concentration (IC50) worked out at 147 nM.

In the case of `CCC(CC)O[C@@H]1C=C(C(=O)O)C[C@H](NC(N)=O)[C@H]1NC(C)=O`, half-maximal inhibition (IC50) was put at 667 nM.

`CCC(CC)O[C@@H]1C=C(C(=O)O)C[C@H](NC(=O)NN)[C@H]1NC(C)=O` came in with an IC50 of 133 nM.

The compound `CCCNNC(=O)N[C@H]1CC(C(=O)O)=C[C@@H](OC(CC)CC)[C@@H]1NC(C)=O` displayed an IC50 of 384 nM.

The compound `CCC(CC)O[C@@H]1C=C(C(=O)O)C[C@H](NC(=O)NNC)[C@H]1NC(C)=O` gave an IC50 of 118 nM.

Broadly, the IC50 is the point on the concentration scale where inhibition reaches its midpoint. Low readings indicate inhibition by little substance, high ones a need for much substance.

Values taken from ChEMBL document CHEMBL4837229 (Eur J Med Chem, 2021).
